ChEMBL document CHEMBL1201862, “PubChem BioAssay data set” (2004)
Active and inactive are the calls of the source.

Experiments:
[1] = target: T1, DNA repair protein RAD52 homolog (Homo sapiens, UniProt P43351); type: functional, biochemical
T1 sequence (P43351 whole entry): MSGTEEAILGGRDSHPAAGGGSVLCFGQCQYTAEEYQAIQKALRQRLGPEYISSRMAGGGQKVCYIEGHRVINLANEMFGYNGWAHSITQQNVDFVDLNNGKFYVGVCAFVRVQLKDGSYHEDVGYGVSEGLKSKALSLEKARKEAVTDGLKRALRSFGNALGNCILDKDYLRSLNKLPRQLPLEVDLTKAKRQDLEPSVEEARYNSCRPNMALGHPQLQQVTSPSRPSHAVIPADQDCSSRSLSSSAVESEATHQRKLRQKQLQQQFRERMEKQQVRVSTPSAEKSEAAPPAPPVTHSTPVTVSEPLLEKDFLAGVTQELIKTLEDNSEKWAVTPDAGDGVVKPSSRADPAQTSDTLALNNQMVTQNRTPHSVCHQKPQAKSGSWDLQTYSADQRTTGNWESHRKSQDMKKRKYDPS

[2] = target: DNA repair and recombination protein RAD54-like (Homo sapiens, UniProt Q92698); assay: RAD54 Holliday junction migration blockers – biochemical, fluorescence, cherry-picked samples, dose series, confirmation (AID 651657); type: functional
DNA repair and recombination protein RAD54-like, sequence (Q92698 whole entry): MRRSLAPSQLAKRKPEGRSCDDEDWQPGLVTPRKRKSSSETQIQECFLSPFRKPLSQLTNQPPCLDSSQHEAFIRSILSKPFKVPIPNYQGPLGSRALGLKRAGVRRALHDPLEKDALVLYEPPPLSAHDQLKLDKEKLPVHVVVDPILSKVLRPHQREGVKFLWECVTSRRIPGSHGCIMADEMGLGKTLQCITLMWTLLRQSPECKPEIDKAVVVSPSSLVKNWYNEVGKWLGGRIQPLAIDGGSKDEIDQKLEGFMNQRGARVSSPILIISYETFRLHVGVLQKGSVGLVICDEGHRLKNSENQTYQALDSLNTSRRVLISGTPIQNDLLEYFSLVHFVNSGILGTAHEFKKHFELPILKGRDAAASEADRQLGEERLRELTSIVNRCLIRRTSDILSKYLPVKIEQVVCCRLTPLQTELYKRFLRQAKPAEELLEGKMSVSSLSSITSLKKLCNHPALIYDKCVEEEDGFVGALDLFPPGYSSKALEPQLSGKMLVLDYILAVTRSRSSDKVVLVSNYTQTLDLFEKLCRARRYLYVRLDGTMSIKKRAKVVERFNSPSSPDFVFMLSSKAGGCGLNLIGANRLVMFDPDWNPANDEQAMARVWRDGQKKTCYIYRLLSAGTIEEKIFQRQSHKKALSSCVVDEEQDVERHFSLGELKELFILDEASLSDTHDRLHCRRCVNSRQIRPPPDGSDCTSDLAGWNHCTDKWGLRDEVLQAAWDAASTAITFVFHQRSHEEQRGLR

[3] = target: Palmitoyl-protein thioesterase ABHD10, mitochondrial (Mus musculus, UniProt Q6PE15); assay: Late stage assay provider results from the probe development effort to identify inhibitors of PME-1: fluorescence-based dose response biochemical gel-based competitive Activity-Based Protein Profiling (ABPP) inhibition of ABHD10 Set 1.; type: functional
Palmitoyl-protein thioesterase ABHD10, mitochondrial, sequence (Q6PE15 whole entry): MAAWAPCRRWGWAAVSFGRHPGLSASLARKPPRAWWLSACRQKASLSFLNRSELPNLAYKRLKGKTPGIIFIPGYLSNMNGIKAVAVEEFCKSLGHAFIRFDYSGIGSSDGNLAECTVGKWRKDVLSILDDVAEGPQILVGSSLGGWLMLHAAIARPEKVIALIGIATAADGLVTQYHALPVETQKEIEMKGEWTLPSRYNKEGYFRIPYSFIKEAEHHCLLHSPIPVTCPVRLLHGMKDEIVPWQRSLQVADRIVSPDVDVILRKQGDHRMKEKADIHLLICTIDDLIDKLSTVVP

[4] = target: Melanocortin receptor 4 (Homo sapiens, UniProt P32245); type: functional, cell-based;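 note: Cell-based assay with luminescence read-out, confirmatory dose-response testing for agonist activity of biased ligands at MC4R; human U2OS cells with tagged receptor and beta-arrestin; potency of agonists that increase receptor coupling to beta-arrestin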
Melanocortin receptor 4, sequence (P32245 whole entry): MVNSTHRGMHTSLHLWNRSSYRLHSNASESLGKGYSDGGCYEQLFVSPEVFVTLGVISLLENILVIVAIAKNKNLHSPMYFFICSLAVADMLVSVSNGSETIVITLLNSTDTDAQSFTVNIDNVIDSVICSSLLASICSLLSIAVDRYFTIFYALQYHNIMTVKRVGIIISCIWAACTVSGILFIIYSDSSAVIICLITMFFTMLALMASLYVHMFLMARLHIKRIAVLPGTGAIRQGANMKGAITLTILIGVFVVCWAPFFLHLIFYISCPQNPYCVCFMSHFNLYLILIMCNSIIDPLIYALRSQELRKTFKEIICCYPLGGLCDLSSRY

[5] = target: Steroidogenic factor 1 (Homo sapiens, UniProt Q13285); assay: Counterscreen for inverse agonists of the liver receptor homolog-1 (LRH-1; NR5A2): Luminescence-based cell-based high throughput dose response assay to identify inverse agonists of the Steroidogenic Factor 1 Nuclear Receptor (SF1; NR5A1).; type: functional
Steroidogenic factor 1, sequence (Q13285 whole entry): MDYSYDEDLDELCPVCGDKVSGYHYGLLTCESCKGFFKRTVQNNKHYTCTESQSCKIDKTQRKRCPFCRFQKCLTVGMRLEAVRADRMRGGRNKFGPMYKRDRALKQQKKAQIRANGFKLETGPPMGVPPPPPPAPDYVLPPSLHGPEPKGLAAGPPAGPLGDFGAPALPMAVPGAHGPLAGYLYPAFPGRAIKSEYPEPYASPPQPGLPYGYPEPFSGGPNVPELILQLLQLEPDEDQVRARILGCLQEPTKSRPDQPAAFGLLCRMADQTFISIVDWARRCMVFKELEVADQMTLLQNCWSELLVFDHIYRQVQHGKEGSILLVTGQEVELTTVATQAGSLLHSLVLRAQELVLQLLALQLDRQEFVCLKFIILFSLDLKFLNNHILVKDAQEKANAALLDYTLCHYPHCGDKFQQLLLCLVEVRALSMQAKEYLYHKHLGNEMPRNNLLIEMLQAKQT

[6] = nonselective StAR promoter luciferase inhibitors – cell-based, luminescence, luciferase reporter, counter-screen for LRH-1 inverse agonist project, dose response (AID 651969); type: functional
[7] = target: Nuclear receptor subfamily 5 group A member 2 (Homo sapiens, UniProt O00482); type: functional, cell-based;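 note: HEK293T cells transfected with LRH-1 and a StAR promoter luciferase reporter; potency for inhibitors that lower LRH-1 driven reporter light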
Nuclear receptor subfamily 5 group A member 2, sequence (O00482 whole entry): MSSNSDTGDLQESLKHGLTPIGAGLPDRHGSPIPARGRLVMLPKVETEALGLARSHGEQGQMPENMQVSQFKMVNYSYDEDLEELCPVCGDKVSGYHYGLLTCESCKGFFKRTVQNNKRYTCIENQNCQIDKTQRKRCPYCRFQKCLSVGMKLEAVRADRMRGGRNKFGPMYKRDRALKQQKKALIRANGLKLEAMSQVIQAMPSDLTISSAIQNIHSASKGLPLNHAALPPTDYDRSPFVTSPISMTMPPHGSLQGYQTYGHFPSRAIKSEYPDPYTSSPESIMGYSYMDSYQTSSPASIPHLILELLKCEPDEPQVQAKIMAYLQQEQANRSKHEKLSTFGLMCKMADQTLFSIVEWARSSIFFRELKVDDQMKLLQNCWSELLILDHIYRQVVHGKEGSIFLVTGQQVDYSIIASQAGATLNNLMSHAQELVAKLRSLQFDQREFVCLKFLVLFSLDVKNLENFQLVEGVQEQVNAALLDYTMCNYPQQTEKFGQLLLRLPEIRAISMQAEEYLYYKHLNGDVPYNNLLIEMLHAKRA

[8] = target: Mitochondrial peptide methionine sulfoxide reductase (Bos taurus, UniProt P54149); assay: Absorbance-based biochemical high throughput dose response assay for activators of Methionine sulfoxide reductase A (MsrA).; type: functional
Mitochondrial peptide methionine sulfoxide reductase, sequence (P54149 whole entry): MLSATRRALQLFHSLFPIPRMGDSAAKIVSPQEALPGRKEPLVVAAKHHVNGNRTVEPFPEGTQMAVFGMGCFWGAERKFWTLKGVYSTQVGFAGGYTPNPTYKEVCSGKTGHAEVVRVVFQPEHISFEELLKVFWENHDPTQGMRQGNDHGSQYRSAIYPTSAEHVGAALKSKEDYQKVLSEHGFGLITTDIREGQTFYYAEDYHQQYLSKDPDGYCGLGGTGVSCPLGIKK

[9] = target: T2, Apoptotic protease-activating factor 1 (Homo sapiens, UniProt O14727); assay: SAR analysis of small molecule Activators of Apaf-1 in a Fluorescent assay.; type: functional; settings: read-out: EC50_Mean;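 note: caspase-3 cleavage of fluorogenic Rh110 DEVD substrate downstream of apoptosome activation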
T2 sequence (O14727 whole entry): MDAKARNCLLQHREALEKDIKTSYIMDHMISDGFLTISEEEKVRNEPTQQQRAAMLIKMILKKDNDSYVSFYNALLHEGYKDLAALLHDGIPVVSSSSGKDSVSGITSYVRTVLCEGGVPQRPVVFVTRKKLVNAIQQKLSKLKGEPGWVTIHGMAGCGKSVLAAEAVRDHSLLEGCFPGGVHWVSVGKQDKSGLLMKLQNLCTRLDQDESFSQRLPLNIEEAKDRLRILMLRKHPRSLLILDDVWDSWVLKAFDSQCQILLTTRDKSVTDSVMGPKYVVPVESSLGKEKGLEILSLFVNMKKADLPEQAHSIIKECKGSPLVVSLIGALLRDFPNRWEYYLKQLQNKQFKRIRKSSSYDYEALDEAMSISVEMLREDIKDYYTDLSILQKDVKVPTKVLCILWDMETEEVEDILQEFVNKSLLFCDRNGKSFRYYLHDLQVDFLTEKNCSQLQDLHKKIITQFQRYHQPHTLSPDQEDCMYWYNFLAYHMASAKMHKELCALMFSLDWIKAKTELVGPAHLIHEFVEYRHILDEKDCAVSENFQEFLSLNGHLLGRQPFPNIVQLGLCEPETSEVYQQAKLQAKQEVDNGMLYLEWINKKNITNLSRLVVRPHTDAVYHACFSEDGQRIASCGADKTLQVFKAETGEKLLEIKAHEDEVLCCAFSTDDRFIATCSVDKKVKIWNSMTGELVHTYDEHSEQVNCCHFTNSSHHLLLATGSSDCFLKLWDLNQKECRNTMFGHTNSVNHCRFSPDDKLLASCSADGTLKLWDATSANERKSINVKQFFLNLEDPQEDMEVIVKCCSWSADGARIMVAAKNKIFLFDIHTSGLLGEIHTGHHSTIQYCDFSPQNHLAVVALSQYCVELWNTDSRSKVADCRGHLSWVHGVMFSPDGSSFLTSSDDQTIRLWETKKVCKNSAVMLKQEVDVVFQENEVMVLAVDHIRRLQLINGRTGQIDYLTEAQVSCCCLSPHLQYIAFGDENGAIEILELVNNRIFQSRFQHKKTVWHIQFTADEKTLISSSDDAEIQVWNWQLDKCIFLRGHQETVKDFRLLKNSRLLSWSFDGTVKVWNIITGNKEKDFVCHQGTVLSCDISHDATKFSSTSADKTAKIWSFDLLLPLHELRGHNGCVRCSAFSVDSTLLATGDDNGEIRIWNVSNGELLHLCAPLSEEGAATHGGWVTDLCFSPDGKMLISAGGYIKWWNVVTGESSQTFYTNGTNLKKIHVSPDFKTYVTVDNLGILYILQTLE

[10] = target: T3, Sentrin-specific protease 1 (Homo sapiens, UniProt Q9P0U3); assay: Dose response confirmation of small molecule inhibitors of the catalytic domain of the SUMO protease, SENP1 in a FRET assay.; type: functional; settings: read-out: IC50_Mean
T3 sequence (Q9P0U3 whole entry, the tested form may be a part): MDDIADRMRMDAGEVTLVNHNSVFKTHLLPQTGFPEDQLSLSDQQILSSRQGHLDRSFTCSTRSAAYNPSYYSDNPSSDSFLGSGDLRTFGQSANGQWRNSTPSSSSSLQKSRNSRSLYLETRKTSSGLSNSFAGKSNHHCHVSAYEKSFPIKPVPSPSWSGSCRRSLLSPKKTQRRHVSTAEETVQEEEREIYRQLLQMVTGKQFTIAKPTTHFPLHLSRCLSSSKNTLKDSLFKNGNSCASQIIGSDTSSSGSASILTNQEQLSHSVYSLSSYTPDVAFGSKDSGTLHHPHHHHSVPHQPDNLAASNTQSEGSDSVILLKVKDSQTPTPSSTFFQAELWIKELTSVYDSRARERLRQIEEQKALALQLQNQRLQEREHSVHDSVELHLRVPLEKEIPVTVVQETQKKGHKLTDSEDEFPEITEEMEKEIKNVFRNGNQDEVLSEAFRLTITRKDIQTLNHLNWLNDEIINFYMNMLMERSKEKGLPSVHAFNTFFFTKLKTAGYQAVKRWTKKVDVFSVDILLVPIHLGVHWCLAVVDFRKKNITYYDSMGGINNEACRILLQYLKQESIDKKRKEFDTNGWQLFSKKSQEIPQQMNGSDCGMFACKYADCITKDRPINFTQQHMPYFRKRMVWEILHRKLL

[11] = target: T3, Sentrin-specific protease 1; assay: SENP1 catalytic domain blockers, concentration series – biochemical, kinetic FRET, dose response (AID 651697); type: functional; settings: read-out: IC50_Mean
[12] = Vero cell cytotoxicity, cytotoxicity control for M. tuberculosis inhibitor project, purified and synthesized samples, set 3 (AID 504684); type: functional
[13] = cells; type: functional
[14] = target: T4, ATP-dependent translocase ABCB1 (Homo sapiens, UniProt P08183); assay: P-gp JC-1 efflux blockade concentration-response – Jurkat-DNR cells, flow cytometry, set 2, dose response (AID 504569); type: functional; settings: read-out: EC50_MICROM_;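 note: potency of pump inhibitors that raise cellular JC-1 green fluorescence up to the nicardipine level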
T4 sequence (P08183 whole entry): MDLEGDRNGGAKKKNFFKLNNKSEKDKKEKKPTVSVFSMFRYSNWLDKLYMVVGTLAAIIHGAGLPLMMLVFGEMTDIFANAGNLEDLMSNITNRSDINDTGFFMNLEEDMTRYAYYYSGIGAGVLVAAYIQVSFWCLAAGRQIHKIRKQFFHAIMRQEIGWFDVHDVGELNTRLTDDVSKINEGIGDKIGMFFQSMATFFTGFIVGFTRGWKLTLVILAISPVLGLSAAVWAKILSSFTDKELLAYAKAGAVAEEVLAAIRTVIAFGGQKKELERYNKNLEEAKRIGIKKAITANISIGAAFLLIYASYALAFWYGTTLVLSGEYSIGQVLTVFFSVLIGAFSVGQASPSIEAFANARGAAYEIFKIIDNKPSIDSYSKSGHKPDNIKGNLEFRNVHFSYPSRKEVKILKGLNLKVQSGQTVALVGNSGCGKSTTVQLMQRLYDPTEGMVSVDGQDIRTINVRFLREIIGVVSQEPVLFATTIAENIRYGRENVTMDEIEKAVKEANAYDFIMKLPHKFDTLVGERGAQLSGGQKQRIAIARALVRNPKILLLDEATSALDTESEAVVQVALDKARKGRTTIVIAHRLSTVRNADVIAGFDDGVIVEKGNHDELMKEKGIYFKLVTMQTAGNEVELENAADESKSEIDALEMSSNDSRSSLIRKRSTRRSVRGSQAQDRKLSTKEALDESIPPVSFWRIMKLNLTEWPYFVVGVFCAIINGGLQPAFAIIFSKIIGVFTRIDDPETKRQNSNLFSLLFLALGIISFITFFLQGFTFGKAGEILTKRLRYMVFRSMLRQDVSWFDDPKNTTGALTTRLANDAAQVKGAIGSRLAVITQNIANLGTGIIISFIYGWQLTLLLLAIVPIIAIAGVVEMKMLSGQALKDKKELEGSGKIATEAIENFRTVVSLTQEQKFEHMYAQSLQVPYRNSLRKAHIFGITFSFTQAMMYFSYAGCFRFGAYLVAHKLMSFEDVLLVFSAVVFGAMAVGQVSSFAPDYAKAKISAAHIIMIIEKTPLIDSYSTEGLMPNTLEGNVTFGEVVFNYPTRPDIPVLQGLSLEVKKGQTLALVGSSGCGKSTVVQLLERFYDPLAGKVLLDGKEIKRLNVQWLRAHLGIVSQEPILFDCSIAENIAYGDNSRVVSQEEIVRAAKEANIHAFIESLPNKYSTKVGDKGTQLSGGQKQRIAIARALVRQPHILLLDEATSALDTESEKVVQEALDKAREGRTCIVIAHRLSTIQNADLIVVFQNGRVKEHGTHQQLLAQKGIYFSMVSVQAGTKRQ

[15] = target: T4, ATP-dependent translocase ABCB1; assay: inhibition of BCRP-mediated JC-1 efflux – Ig-MXP3 cells, flow cytometry, set 2, dose response (AID 504566); type: functional; settings: read-out: EC50_MICROM_;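 note: flow cytometry median green fluorescence of retained JC-1 dye; potency of efflux pump inhibition measured as rising substrate retention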
[16] = HIV-1 AD8 envelope cell-cell fusion blockers – cherry-pick, dose response (AID 652062); type: functional, cell-based;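 note: luciferase signal from cell-cell fusion driven by HIV-1 clade B AD8 Env; potency is for inhibitors of fusion seen as a drop in luminescence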
[17] = target: T5, Interleukin-8 (Homo sapiens, UniProt P10145); assay: Dose Response confirmation of uHTS small molecule hits for cystic fibrosis induced NFkb Inhibitors in a TNFa-induced IL8 counterscreen.; type: functional; settings: read-out: IC50_Mean
T5 sequence (P10145 whole entry): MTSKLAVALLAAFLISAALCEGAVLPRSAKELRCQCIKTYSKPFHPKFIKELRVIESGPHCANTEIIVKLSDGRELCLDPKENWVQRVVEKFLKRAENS

[18] = blockers of HIV-1 ZM109 envelope-driven cell-cell fusion – HeLa effector, CEM target cells, luciferase, cherry-pick, dose response (AID 652058); type: functional, cell-based;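 note: luciferase signal from HIV-1 Env mediated cell-cell fusion of effector and target cells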
[19] = off-target signal loss in HeLa-CEM21 co-culture – HeLa F-luc CTL cells, cherry-picked, counter-screen for HIV-1 Env fusion inhibitor project, dose response (AID 652040); type: functional, cell-based;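 note: potency for signal decrease marking cytotoxic or nonspecific inhibition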
[20] = blockers of HIV-1 envelope-mediated cell-cell fusion – cherry-pick, dose response (AID 652057); type: functional, cell-based
[21] = target: T6, Protein skinhead-1 (Caenorhabditis elegans, UniProt P34707); type: functional
T6 sequence (P34707 whole entry): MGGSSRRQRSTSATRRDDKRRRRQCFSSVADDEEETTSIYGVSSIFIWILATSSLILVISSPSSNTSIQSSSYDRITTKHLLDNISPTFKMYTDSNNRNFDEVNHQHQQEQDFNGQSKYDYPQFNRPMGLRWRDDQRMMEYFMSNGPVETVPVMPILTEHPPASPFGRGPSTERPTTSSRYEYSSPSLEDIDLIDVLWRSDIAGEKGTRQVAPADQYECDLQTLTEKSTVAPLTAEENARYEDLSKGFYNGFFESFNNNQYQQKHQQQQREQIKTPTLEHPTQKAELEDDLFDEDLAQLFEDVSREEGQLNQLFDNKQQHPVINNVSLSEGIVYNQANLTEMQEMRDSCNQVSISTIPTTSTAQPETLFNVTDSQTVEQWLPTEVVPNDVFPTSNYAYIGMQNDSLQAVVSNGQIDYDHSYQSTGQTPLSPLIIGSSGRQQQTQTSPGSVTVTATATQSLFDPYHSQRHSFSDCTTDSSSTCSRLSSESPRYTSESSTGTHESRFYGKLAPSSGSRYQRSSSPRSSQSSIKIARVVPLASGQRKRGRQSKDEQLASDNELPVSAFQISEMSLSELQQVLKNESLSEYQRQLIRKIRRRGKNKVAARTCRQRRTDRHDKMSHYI

[22] = target: T5, Interleukin-8; assay: Dose Response confirmation of uHTS small molecule hits for cystic fibrosis induced NFkb Inhibitors in a PAF-induced IL8 counterscreen.; type: functional; settings: read-out: IC50_Mean
[23] = M. tuberculosis growth inhibition in 7H9, dose response, 7H9 media, purified and synthesized samples, set 3 (AID 504646); type: functional
[24] = target: Photoreceptor-specific nuclear receptor (Homo sapiens, UniProt Q9Y5X4); type: functional, cell-based;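 note: CHO-S cells with Gal4-NCOR and VP16-NR2E3 two-hybrid luciferase reporter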
Photoreceptor-specific nuclear receptor, sequence (Q9Y5X4 whole entry, the tested form may be a part): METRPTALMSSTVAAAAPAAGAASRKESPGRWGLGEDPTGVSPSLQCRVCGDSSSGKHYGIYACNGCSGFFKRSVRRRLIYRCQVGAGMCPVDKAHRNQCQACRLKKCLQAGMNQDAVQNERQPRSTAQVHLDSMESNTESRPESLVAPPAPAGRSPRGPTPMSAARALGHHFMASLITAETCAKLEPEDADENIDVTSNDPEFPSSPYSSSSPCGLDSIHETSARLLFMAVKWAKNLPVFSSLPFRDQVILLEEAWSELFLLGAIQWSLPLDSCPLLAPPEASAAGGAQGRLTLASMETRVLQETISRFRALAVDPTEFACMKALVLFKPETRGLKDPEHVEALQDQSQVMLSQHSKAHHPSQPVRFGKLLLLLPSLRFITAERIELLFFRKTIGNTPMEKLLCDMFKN

[25] = target: T7, Eukaryotic translation initiation factor 2-alpha kinase 3 (Homo sapiens, UniProt Q9NZJ5); assay: Dose response cell-based high-throughput screening assay to measure PERK inhibition. [Related pubchem assays: 1416 ]; type: functional
T7 sequence (Q9NZJ5 whole entry): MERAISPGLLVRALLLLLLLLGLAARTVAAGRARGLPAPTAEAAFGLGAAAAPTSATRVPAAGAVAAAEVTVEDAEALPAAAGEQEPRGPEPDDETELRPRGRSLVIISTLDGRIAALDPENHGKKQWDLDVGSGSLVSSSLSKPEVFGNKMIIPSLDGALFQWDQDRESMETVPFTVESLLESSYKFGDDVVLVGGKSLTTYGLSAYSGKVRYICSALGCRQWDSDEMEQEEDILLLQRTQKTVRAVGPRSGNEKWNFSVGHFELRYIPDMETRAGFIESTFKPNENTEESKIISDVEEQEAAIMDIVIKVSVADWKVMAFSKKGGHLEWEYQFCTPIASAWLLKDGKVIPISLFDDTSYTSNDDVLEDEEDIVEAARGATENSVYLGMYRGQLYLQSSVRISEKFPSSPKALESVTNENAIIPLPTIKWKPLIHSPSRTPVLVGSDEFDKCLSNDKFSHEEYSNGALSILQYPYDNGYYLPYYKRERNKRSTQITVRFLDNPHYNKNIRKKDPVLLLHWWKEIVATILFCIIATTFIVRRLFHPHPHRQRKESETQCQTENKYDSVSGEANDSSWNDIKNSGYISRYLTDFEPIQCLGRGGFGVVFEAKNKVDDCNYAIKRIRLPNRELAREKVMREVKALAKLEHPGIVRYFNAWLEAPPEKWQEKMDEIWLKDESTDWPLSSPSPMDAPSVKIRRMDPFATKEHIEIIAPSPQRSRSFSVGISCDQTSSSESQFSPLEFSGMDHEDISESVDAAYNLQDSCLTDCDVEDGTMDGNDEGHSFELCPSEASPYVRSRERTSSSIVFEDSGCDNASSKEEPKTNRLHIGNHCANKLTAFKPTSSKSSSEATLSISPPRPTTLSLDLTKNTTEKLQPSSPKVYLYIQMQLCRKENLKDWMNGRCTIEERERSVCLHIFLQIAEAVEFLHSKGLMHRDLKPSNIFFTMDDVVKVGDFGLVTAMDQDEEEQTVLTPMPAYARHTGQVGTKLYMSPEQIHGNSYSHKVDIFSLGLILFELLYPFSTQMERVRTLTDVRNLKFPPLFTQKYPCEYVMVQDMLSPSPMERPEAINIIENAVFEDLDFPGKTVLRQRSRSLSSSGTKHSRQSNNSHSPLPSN

[26] = target: T7, Eukaryotic translation initiation factor 2-alpha kinase 3; assay: Counterscreen assay for PERK inhibitors: Dose response cell-based high throughput screening assay to measure inhibition of PERK at 6 hours. [Related pubchem assays: 1522, 1416 ]; type: functional
[27] = test system: INS1; assay: INS-1E survival protection against cytokine death – cell-based, luminescence, retest, dose response (AID 449756); type: functional; settings: Rattus norvegicus;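 note: cell death triggered by IL-1 beta plus TNF-alpha plus IFN-gamma mixture; protective hits raise ATP signal compared with cytokine alone wells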

## CN(C)CCNC(=O)c1cccc(-c2cnc3c(NC=O)cc(-c4cccc(F)c4)cn23)c1
[1]
  AC50: 5.99 µM (active)
[2]
  AC50: 22.4 µM (active)

## CC[C@@]1(c2ccc(Cl)cc2)C(=O)N(C(=O)OC)N1C(=O)OC
[3]
  IC50: 0.103 µM (active)

## CC(C)CC(N)c1csc(Nc2ccc(C(F)(F)F)cn2)n1 (configuration not stated)
[4]
  EC50: > 89.2 µM (inactive)

## COc1ccc(NC(=O)CSc2nnc3ccc(-c4cccnc4)nn23)cc1OC
[5]
  IC50: 35.9 µM (inactive)
[6]
  IC50: 35.9 µM (inactive)
[7]
  IC50: 35.9 µM (inactive)

## CC(C)[C@H](NC(=O)c1ccccc1)C(=O)OCc1nc2scc(-c3ccccc3)c2c(=O)[nH]1
[8]
  EC50: > 104 µM (inactive)

## CCC(C)(C)c1ccc(O)c(N2CC(C(=O)O)CC2=O)c1 (configuration not stated)
[9]
  EC50: > 100 µM (inactive)

## N#C/C(=C\c1cc2ccccc2nc1N1CCCCC1)C(N)=O
[10]
  IC50: 25.8 µM (inactive)
[11]
  IC50: 53.2 µM (inactive)

## COC(=O)CCc1nc2c(C#N)c(-c3ccc(Cl)cc3)ccn2n1
[12]
  CC50: > 100 µM (active)
[13]
  IC50: 5.43 µM (active)

## Cc1ccc(-c2cc3nc(-c4ccccc4)cc(N4CCN(C(=O)c5ccoc5)CC4)n3n2)cc1
[14]
  EC50: 0.66 µM (active)
[15]
  EC50: 0.81 µM (active)

## CC1(Cc2ccc(Cl)cc2)C(=O)Nc2ccc(-c3cccnc3)cc21 (configuration not stated)
[16]
  AC50: 3.3 µM (active)
[17]
  IC50: 41.1 µM (inactive)
[18]
  AC50: 4.18 µM (active)
[19]
  AC50: 6.69 µM (active)
[20]
  AC50: 1.96 µM (active)
[21]
  IC50: 19.5 µM (active)
[22]
  IC50: 15.6 µM (inactive)

## O=C(NCC1COc2ccccc2O1)C1CCC(CNc2c(N3CCCCC3)c(=O)c2=O)CC1 (configuration not stated)
[23]
  IC50: > 25 µM (active)

## CCC1(OC(=O)CN)C(=O)OCc2c1cc1n(c2=O)Cc2cc3ccccc3nc2-1 (configuration not stated)
[24]
  IC50: 1.23 µM (active)
[25]
  EC50: > 55.7 µM (not active)
[26]
  EC50: > 55.7 µM (not active)
[27]
  AC50: 2.25 µM (active)
